{
  "source": "paper PMC9155639",
  "about": "(Journal of Antimicrobial Chemotherapy, 2022)",
  "key": {"[1]": {"biological_target": "T1, BpMip (Burkholderia pseudomallei, UniProt Q63J95)", "T1 sequence (Q63J95 whole entry, added parts left off)": "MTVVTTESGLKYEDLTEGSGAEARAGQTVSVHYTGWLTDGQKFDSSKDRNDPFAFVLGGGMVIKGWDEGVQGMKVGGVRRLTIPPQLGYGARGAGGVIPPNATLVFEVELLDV", "experiment": "biochemical"}, "[2]": {"biological_target": "T1, BpMip", "experiment": "biochemical", "assay_type": "binding, B. pseudomallei"}, "[3]": {"tested_on": "B. pseudomallei K96243"}},
  "data": [
    {"smiles": "COc1cc(NC(=O)CCNC(=O)[C@@H]2CCCCN2S(=O)(=O)Cc2ccccc2)cc(OC)c1OC", "note": "[SF339, (S)-1-(benzylsulfonyl)-N-(3-oxo-3-((3,4,5-trimethoxyphenyl)amino)propyl)piperidine-2-carboxamide]", "values": [
      {"measurement": "IC50", "setting": "[1]", "value": 260, "unit": "nM"},
      {"measurement": "Ki", "setting": "[1]; Ki (μM) Mean", "value": 0.45, "unit": "µM"},
      {"measurement": "Kd", "setting": "[2]", "value": "10.9 ± 0.2", "unit": "µM"},
      {"measurement": "effect on B. pseudomallei-induced cytotoxicity", "setting": "[3]", "value": "no statistically significant difference"}
    ]}
  ]
}
